Patent publication US8501778B2, “Aralkyl piperidine derivatives and their uses as antalgic or ataractic agent” (priority 2008, dated 2013)
Structures can show the parent of a compound that is named as a salt. Where two headings read alike, the source gives them in different places.

Key:
Kunming mice [1] = experiment: Acetic Acid Twisting Method in mice (antalgic effect); format: in vivo; details: Mus musculus
Kunming mice [2] = experiment: Hot Plate Method in mice (antalgic effect); format: in vivo; details: Mus musculus, read-out: Increasing rate of pain threshold (%)
[3] = po, 1 h, gavage administration, hot plate
[4] = sc, 10 mg/kg, subcutaneous injection at neck, mice, read-out: twisting response inhibiting rate (%)
[5] = sc, 20 mg/kg, subcutaneous injection at neck, mice, read-out: twisting response inhibiting rate (%)
[6] = sc, 40 mg/kg, subcutaneous injection at neck, mice, read-out: twisting response inhibiting rate (%)
[7] = sc, subcutaneous injection at neck, 1 hour after dosing, hot plate 55.5° C.
[8] = sc, read-out: twisting response inhibiting rate (%)

Question: Which inhibition in vivo at 10 mg/kg (Kunming mice [1]; po, 10 mg/kg, gavage administration, mice, read-out: twisting response inhibiting rate (%)) does the source give for `OC(CC1(O)CCN(C(c2ccccc2)c2ccccc2)CC1)c1ccccc1` (stereo not shown) [Compound V-3, N-diphenylmethyl-4-(2-hydroxy-2-phenylethyl)-4-piperidinol hydrochloride] here?
Answer: 60.6%

Question: And the inhibition in vivo at 20 mg/kg (Kunming mice [1]; po, 20 mg/kg, gavage administration, mice, read-out: twisting response inhibiting rate (%))?
Answer: 49.8%

Question: What about the inhibition in vivo at 40 mg/kg (Kunming mice [1]; po, 40 mg/kg, gavage administration, mice, read-out: twisting response inhibiting rate (%)) of the same molecule?
Answer: 68.1%

Question: What about the inhibition in vivo at 20 mg/kg (Kunming mice [1]; sc, read-out: antalgic) of the same molecule?
Answer: 84%

Question: And the change in vivo at 10 mg/kg (Kunming mice [2]; [3])?
Answer: 64.1%

Question: What about the change in vivo at 20 mg/kg (Kunming mice [2]; [3]) of the same molecule?
Answer: 86.8%

Question: What about the change in vivo at 40 mg/kg (Kunming mice [2]; [3]) of the same molecule?
Answer: 136%

Question: Which inhibition in vivo at 20 mg/kg (Kunming mice [1]; sc, read-out: antalgic) does the source give for `O=C(CC1(O)CCN(Cc2ccccc2)CC1)c1ccccc1` [III-1, N-benzyl-4-benzoylmethyl-4-piperidinol hydrochloride] here?
Answer: 62%

Question: What about the inhibition in vivo at 10 mg/kg (Kunming mice [1]; [4]) of the same molecule?
Answer: 73.3%

Question: And the inhibition in vivo at 20 mg/kg (Kunming mice [1]; [5])?
Answer: 59.4%

Question: What about the inhibition in vivo at 40 mg/kg (Kunming mice [1]; [6]) of the same molecule?
Answer: 91.1%

Question: And the change in vivo at 10 mg/kg (Kunming mice [2]; [7])?
Answer: 99.7%

Question: And the change in vivo at 20 mg/kg (Kunming mice [2]; [7])?
Answer: 89%

Question: What about the change in vivo at 40 mg/kg (Kunming mice [2]; [7]) of the same molecule?
Answer: 148%

Question: Which results are given for `O=C(CC1(O)CCN(Cc2ccc(F)cc2)CC1)c1ccccc1` [III-3, N-p-fluorobenzyl-4-benzoylmethyl-4-piperidinol hydrochloride]?
Answer: inhibition in vivo at 20 mg/kg (Kunming mice [1]; sc, read-out: antalgic): 76%; inhibition in vivo at 10 mg/kg (Kunming mice [1]; [4]): 69.4%; inhibition in vivo at 20 mg/kg (Kunming mice [1]; [5]): 77.2%; inhibition in vivo at 40 mg/kg (Kunming mice [1]; [6]): 71.5%; change in vivo at 10 mg/kg (Kunming mice [2]; [7]): 11.9%; change in vivo at 20 mg/kg (Kunming mice [2]; [7]): 18.5%; change in vivo at 40 mg/kg (Kunming mice [2]; [7]): 29.4%

Question: With `O=C(CC1(O)CCN(Cc2ccc([N+](=O)[O-])cc2)CC1)c1ccccc1` [III-4, N-p-nitrobenzyl-4-benzoylmethyl-4-piperidinol hydrochloride] as the molecule, how does the inhibition in vivo at 20 mg/kg (Kunming mice [1]; sc, read-out: antalgic) read?
Answer: 100%

Question: And the inhibition in vivo at 10 mg/kg (Kunming mice [1]; [8])?
Answer: 100%

Question: What about the inhibition in vivo at 20 mg/kg (Kunming mice [1]; [8]) of the same molecule?
Answer: 100%

Question: And the inhibition in vivo at 40 mg/kg (Kunming mice [1]; [8])?
Answer: 100%

Question: What about the change in vivo at 10 mg/kg (Kunming mice [2]; [7]) of the same molecule?
Answer: 19.8%

Question: What about the change in vivo at 20 mg/kg (Kunming mice [2]; [7]) of the same molecule?
Answer: 6.47%

Question: What about the change in vivo at 40 mg/kg (Kunming mice [2]; [7]) of the same molecule?
Answer: 15.9%

Question: For `O=C(CC1(O)CCN(Cc2ccccc2)CC1)c1ccc2c(c1)OCO2` [III-38, N-benzyl-4-(2-(benzo[d][1,3]dioxol-5-yl)-2-oxoethyl)-4-piperidinol hydrochloride], which inhibition in vivo at 20 mg/kg (Kunming mice [1]; sc, read-out: antalgic) is on record?
Answer: 46%

Question: With `CC(C(=O)c1ccccc1)C1(O)CCN(Cc2ccccc2)CC1` (stereo not shown) [III-39, N-benzyl-4-(1-benzoylethyl)-4-piperidinol hydrochloride] as the molecule, how does the inhibition in vivo at 20 mg/kg (Kunming mice [1]; sc, read-out: antalgic) read?
Answer: 56%

Question: For `O=C(CC1(F)CCN(Cc2ccc3c(c2)OCO3)CC1)c1ccccc1` [IX-2, N-(benzo[d][1,3]dioxol-5-ylmethyl)-4-benzoylmethyl-4-fluoropiperidine hydrochloride], which inhibition in vivo at 20 mg/kg (Kunming mice [1]; sc, read-out: antalgic) is on record?
Answer: 45%

Question: For `CC(c1ccc(N2CCOCC2)cc1)N1CCC(F)(CC(=O)c2ccccc2)CC1` (stereo not shown) [IX-3, N-(1-(4-morpholinophenyl)ethyl)-4-benzoylmethyl-4-fluoropiperidine hydrochloride], which inhibition in vivo at 20 mg/kg (Kunming mice [1]; sc, read-out: antalgic) is on record?
Answer: 64%

Question: Which inhibition in vivo at 20 mg/kg (Kunming mice [1]; sc, read-out: antalgic) does the source give for `CC(c1ccc(N2CCCC2)cc1)N1CCC(F)(CC(=O)c2ccccc2)CC1` (stereo not shown) [IX-4, N-(1-(4-(pyrrolidinyl)phenyl)ethyl)-4-benzoylmethyl-4-fluoropiperidine hydrochloride] here?
Answer: 64%

Question: `COc1ccc(C(C)N2CCC(Cl)(CC(=O)c3ccccc3)CC2)cc1` (stereo not shown) [IX-5, N-(1-(p-methoxyphenyl)ethyl)-4-benzoylmethyl-4-chloropiperidine hydrochloride] was tested. Which inhibition in vivo at 20 mg/kg (Kunming mice [1]; sc, read-out: antalgic) did it give?
Answer: 68%

Question: `O=C(CC1(Cl)CCN(Cc2ccc3c(c2)OCO3)CC1)c1ccccc1` [IX-6, N-(benzo[d][1,3]dioxol-5-ylmethyl)-4-benzoylmethyl-4-chloropiperidine hydrochloride] was tested. Which inhibition in vivo at 20 mg/kg (Kunming mice [1]; sc, read-out: antalgic) did it give?
Answer: 59%

Question: `COc1ccc(C(C)N2CCC(CC(=O)c3ccccc3)(OC)CC2)cc1` (stereo not shown) [VIII-2, N-(1-(p-methoxyphenyl)ethyl)-4-benzoylmethyl-4-methoxylpiperidine hydrochloride] was tested. Which inhibition in vivo at 20 mg/kg (Kunming mice [1]; sc, read-out: antalgic) did it give?
Answer: 76%

Question: For `COC1(CC(=O)c2ccccc2)CCN(C(C)c2ccc(N3CCOCC3)cc2)CC1` (stereo not shown) [VIII-3, N-(1-(4-morpholinophenyl)ethyl)-4-benzoylmethyl-4-methoxylpiperidine hydrochloride], which inhibition in vivo at 20 mg/kg (Kunming mice [1]; sc, read-out: antalgic) is on record?
Answer: 60%
